From article PMC10251204, “Medicago Sativa Defensin1 as a tumor sensitizer for improving chemotherapy: translation from anti-fungal agent to a potential anti-cancer agent” (Frontiers in Oncology, 2023)
Entries after “also recorded” stand apart in the source; their conditions may differ. Bridges are numbered along the chain shown (N, C = ends). Where no end group is shown, it is not given here.

Assays:
MDA-MB-231 cells = experiment: cells; type: cell-based; conditions: Homo sapiens, Doxorubicin dose response alone or combined with Def1 at 20 μM, N=4, unit inferred, read-out: IC50 (Figure 6C)
normal cells = experiment: Cell viability, normal cells; type: cell-based; conditions: Figure 6B
Method: (§1) Cell viability was evaluated by the standard MTT ([…])-2,5-diphenyltetrazolium bromide, Sigma) method. All cancer cells (MDA-MB-231, MCF-7, MCF-R, Hela, MCF-10A epithelial breast cells, induced pluripotent stem cells derived cardiomyocytes (iPSc) were added to the wells of 96-well flat-bottom plates at the density of 2×10^4 per well, allowed to attach overnight, and treated with different concentrations of MsDef1 (1-100 µM). After 24 h, 10 µl of MTT solution was added to each well and the plate was incubated at 37°C for 3 h. After removing the media, 200 µl of isopropanol were added to dissolve the crystals. Absorbance was read at 550 nm in an ELISA plate reader (Sunrise, Tecan, Milan, Italy), and the results are expressed as relative change with respect to the controls set as 100%. For cardiomyocytes, human iPSCs were used (Ionic Transports, St Louis).

MDA-MB-231R cells = experiment: Cell death / apoptosis (TUNEL) synergy study, MDA-MB-231R; type: cell-based; conditions: MsDef1 ~25 μM, Doxorubicin; combination = MsDef1 pretreatment followed by Doxorubicin; N=4
Method: (§2) Doxorubicin resistant MCF-7R and MDA-MB-231R cells were grown in DMEM 10% FBS with increasing concentrations of Doxorubicin as described by Bielawski et al. ([40]). Cells were seeded and exposed to increasing concentrations of Doxorubicin (10 nM to 100 nM). MCF-7 or MDA-MB-231 cells were seeded in cell culture flasks and after 24 h, cells were trypsinized, counted viable cells and reseeded into a new culture flask before adding Doxorubicin again.
(§3) The percentage of apoptotic cells was determined by using TUNEL assay according to the manufacturer protocol. Briefly, cells were fixed with 1% paraformaldehyde at 4 °C, followed by two washing with PBS. Cold 70% ethanol was added to the cell pellet. Cells were then incubated at −20°C for permeabilization. After washing with PBS, cells were incubated with staining solution containing TdT enzyme and fluorescein-dUTP for 60 min at 37°C. Samples were washed with rinse buffer and resuspended in […] of propidium iodise/RNase solution for flow cytometry analysis.

MCF-7R cells = experiment: Cell death / apoptosis (TUNEL) synergy study, MCF-7R; type: cell-based; conditions: MsDef1 ~25 μM, Doxorubicin; combination = MsDef1 pretreatment followed by Doxorubicin; N=4
Method: as §2, §3

[1] = test system: GlcCer and Trx positive cancer cells; conditions: read-out: inhibitory activity IC50 against several cancer cells
Method: as §1

pepsin = pepsin (Sus scrofa, UniProt P00791); conditions: SGF (200 mg NaCl, 0.2% pepsin, pH 2), 500 μL, 37°C, 2 min preincubation, 25 μL of 5 mg/ml protein, SDS PAGE read-out, n=4
Method: The Simulated Gastric Fluid (SGF) assay was performed as described by Fu et al., 2002 with some modification. Tests were performed in 500 μL of SGF (200 mg NaCl, 0.2% pepsin, pH 2) in glass tubes in a 37°C water bath with continuous stirring of the enzyme reaction. […] Five mg/ml bovine serum albumin (minimum 98%, A-7030, Sigma Aldrich) in ultrapure water was used as the positive control for pepsin digestion. Protein samples were analyzed for degradation by SDS PAGE followed by staining for 1 h and extensive washing with ultrapure water.

[2] = IC50 of NBD-labelled peptide, cell line not stated; type: cell-based; conditions: similar to native MsDef1
Method: as §1

[3] = test system: resistant TNBC MDA-MB-231R cells; experiment: NBD-MsDef1 uptake by confocal microscopy, MDA-MB-231R; type: cell-based; conditions: 15 min at 37°C, 20, 6.6 or 2.2 µg/ml, N=4
ovarian SKOV3 cells = experiment: NBD-MsDef1 uptake by confocal microscopy, SKOV3; type: cell-based; conditions: 15 min at 37°C, 20, 6.6 or 2.2 µg/ml, N=4
[4] = test system: normal epithelial breast cells (MCF-10A); experiment: NBD-MsDef1 uptake by confocal microscopy, MCF-10A; type: cell-based; parameters: dose or concentration left out as unconfirmed; conditions: even at 5-fold higher dose
fibroblasts cells = experiment: NBD-MsDef1 uptake by confocal microscopy, fibroblasts; type: cell-based; parameters: dose or concentration left out as unconfirmed; conditions: even at 5-fold higher dose

pepsin, sequence (P00791 60-385): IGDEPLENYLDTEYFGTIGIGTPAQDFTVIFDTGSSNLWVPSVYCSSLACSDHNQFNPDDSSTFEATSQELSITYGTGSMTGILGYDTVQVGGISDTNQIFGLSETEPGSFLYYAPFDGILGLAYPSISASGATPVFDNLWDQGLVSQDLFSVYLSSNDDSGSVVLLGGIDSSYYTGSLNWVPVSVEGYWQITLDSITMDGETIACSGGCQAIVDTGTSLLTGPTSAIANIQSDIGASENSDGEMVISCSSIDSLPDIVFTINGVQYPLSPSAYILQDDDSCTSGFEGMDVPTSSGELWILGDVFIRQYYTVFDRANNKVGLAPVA

In the case of `COc1cccc2c1C(=O)c1c(O)c3c(c(O)c1C2=O)C[C@@](O)(C(=O)CO)C[C@@H]3O[C@H]1C[C@H](N)[C@H](O)[C@H](C)O1` [Doxorubicin], the IC50 (MDA-MB-231 cells) is reported as 0.396 µM, the “dose at which normal cells are killed / still safe” value (normal cells) is reported as ~ 9.6 μM and the cell death (MDA-MB-231R cells) is reported as ~ 30%. For the same compound, the cell death (MCF-7R cells) was ~ 30%.
With “RTCENLADKYRGPCFSGCDTHCTTKENAVSGRCRDDFRCWCTKRC (disulfide 3-45, 14-33, 18-39, 22-41) [MsDef1]” the IC50 [1] was 10 to 15 µM and the “stability to digestion in SGF” value (pepsin) was “remained undigested; also recorded: no significant change in the intensity of the bands”.
For “6-((N-(7-nitrobenz-2-oxa-1, 3-diazol-4-yl) amino) hexanoyl -MsDef1 [NBD-MsDef1]”, the IC50 [2] was 12 µM, the cell uptake [3] was “significant uptake” and the cell uptake (ovarian SKOV3 cells) was “significant uptake”. The cell uptake [4] was “did not take up” and the cell uptake (fibroblasts cells) was “did not take up”.
